Experimental data published in patent US20230181541A1, “COMPOSITIONS AND METHODS FOR TREATING OBSESSIVE-COMPULSIVE DISORDER” (Biohaven Therapeutics Ltd., priority 2020, published 2023).
Where two headings read alike, the source gives them in different places.

Tested on: OCD patients with inadequate response to standard of care treatment
Details: for YBOCS Compulsions Subscale Change from Baseline, LS Mean / YBOCS Compulsions Subscale Change from Baseline, Troriluzole vs Placebo Difference Estimate / YBOCS Obsessions Subscale Change from Baseline, LS Mean / YBOCS Obsessions Subscale Change from Baseline, Troriluzole vs Placebo Difference Estimate / YBOCS Total Change from Baseline, Troriluzole vs Placebo Difference Estimate / YBOCS Total Change from Baseline, LS Mean / YBOCS Total Score Change from Baseline, LS Mean: MITT data set, MMRM; for YBOCS Total Score Change from Baseline, LS Mean: only subjects <= median baseline YBOCS total = 26, not validated
Description: In some embodiments of the invention, the individual treated according to the claimed method is assessed using the Yale Brown Obsessive Compulsive Scale (“Y-BOCS”). See Goodman et al., Arch. Gen. Psychiatry, 1989, 46, 1006-1011. According to this system, an individual is scored using a symptom checklist by asking the individual about specific obsessions and compulsions. Such symptoms are broadly categorized as aggressive obsessions, contamination obsessions, sexual obsessions, hoarding/saving obsessions, religious obsessions, obsession with need for symmetry or exactness, miscellaneous obsessions, somatic obsessions, cleaning/washing compulsions, checking compulsions, repeating rituals, counting compulsions, ordering/arranging compulsions, and miscellaneous compulsions. Each of these categories is further divided by subcategory of more specific symptoms. Individuals are scored according to the answers provided. Scores range from 0-7 for subclinical, 8-15 for mild, 16-23 for moderate, 24-31 for severe, and 32-40 for extreme severity.
Subjects receive a dose of 140 mg QD for the first four (4) weeks, and the dose is then increased to 200 mg QD for the duration of the study. Down titration is only allowed to address tolerability issues**. Eligible subjects include those who perceived benefit in earlier phases or for whom the Principal Investigator (PI) believes extended treatment with BHV-4157 would offer an acceptable risk-benefit profile***. Subjects start the Extension phase on the dose that was taken at the end of the Randomization phase. Subjects receiving placebo in the randomization phase are blindly switched to a 140 mg dose QD for the first 4 week, and the dose is then increased to 200 mg QD (at the Week 4 visits). Down titration is only allowed to address tolerability issues. All visits after Week 4 are open-label****.
Subjects who are stable on Standard of Care (SOC) medication and having an inadequate response to SOC are randomized to additionally receive placebo (QD) or troriluzole for 12 weeks (200 mg QD, after four weeks at 140 mg QD). Subjects completing the Randomization Phase are offered approximately 48 weeks of open-label treatment. The study is conducted from December 2017 to June 2020 with 242 subjects randomized at over 56 sites. The full study details are available online at https://clinicaltrials.gov/ct2/show/study/NCT03299166?term=biohaven&cond=Obsessive-Compulsive+Disorder&draw=2&rank=1.
The study involves subjects with a primary diagnosis of OCD as per Diagnostic and Statistical Manual of Mental Disorders, Fifth Edition, as confirmed by the MINI at screening.
Duration of the subject's illness must be equal to or greater than 1 year.
The Clinical Global Impression Score (CGI-S) must be equal to or greater than 4 at screening and baseline.
Subjects are excluded with a history of more than two (2) previous failed treatment trials of SSRIs, clomipramine, venlafaxine, or desvenlafaxine, (not including the current SSRI trial) given for an adequate duration at an adequate dose as defined by the MGH-TRQ-OCD.
Subjects are excluded if they display acute suicidality or suicide attempt or self-injurious behavior in the last 12 months.
Subjects are excluded if they have a Brown Assessment of Beliefs (BABS) score of greater than 17 at screening and baseline.
Use of a stimulant, neuroleptic (antipsychotic), mood stabilizer and glutamate agent (e.g., topiramate, lamotrigine, N-acetylcysteine, ketamine, memantine, sodium valproate) is prohibited within the 4 weeks prior to screening and during the study.
Current daily anxiolytic or benzodiazepine use is prohibited.

[1] = Week 4, only subjects > baseline YBOCS = 26 (median)
[2] = Week 8, only subjects > baseline YBOCS = 26 (median)
[3] = Week 12, only subjects > baseline YBOCS = 26 (median)

In the case of CN(CC(=O)Nc1nc2ccc(OC(F)(F)F)cc2s1)C(=O)CNC(=O)CN [Troriluzole], the “Y-BOCS outcome versus placebo (in words)” value (200 mg once daily as adjunctive therapy, all study timepoints (weeks 4 to 12)) is reported as “consistent numerical improvement over placebo”, the “YBOCS Compulsions Subscale Change from Baseline, LS Mean” value (Week 4) is reported as −1.72 and the “YBOCS Compulsions Subscale Change from Baseline, Troriluzole vs Placebo Difference Estimate” value (Week 4) is reported as −0.44. For the same compound, the “YBOCS Obsessions Subscale Change from Baseline, LS Mean” value (Week 4) was −1.67, the “YBOCS Obsessions Subscale Change from Baseline, Troriluzole vs Placebo Difference Estimate” value (Week 4) was −0.02 and the “YBOCS Total Change from Baseline, Troriluzole vs Placebo Difference Estimate” value (Week 4) was −0.5. For the same compound, the “YBOCS Total Change from Baseline, LS Mean” value (“YBOCS Total Change … LS Mean” below) (Week 4, 140 mg QD first 4 weeks then 200 mg QD, added to SOC) was −3.4 points, the “YBOCS Total Score Change from Baseline, LS Mean” value (“YBOCS Total Score Change” below) (Week 4) was −2.8 and the “YBOCS Total Change … LS Mean” value [1] was −4.1 points. For the same compound, the “YBOCS Total Change from Baseline, Troriluzole vs Placebo Difference Estimate” value [1] was −0.6, the “YBOCS Compulsions Subscale Change from Baseline, LS Mean” value (Week 8) was −2.61 and the “YBOCS Compulsions Subscale Change from Baseline, Troriluzole vs Placebo Difference Estimate” value (Week 8) was −1.20. For the same compound, the “YBOCS Obsessions Subscale Change from Baseline, LS Mean” value (Week 8) was −2.50, the “YBOCS Obsessions Subscale Change from Baseline, Troriluzole vs Placebo Difference Estimate” value (Week 8) was −0.36 and the “YBOCS Total Change from Baseline, Troriluzole vs Placebo Difference Estimate” value (Week 8) was −1.5. For the same compound, the “YBOCS Total Change … LS Mean” value (Week 8, 140 mg QD first 4 weeks then 200 mg QD, added to SOC) was −5.1 points, the “YBOCS Total Score Change” value (Week 8) was −4.4 and the “YBOCS Total Change … LS Mean” value [2] was −6.0 points. The “YBOCS Total Change from Baseline, Troriluzole vs Placebo Difference Estimate” value [2] was −2.9, the “YBOCS Compulsions Subscale Change from Baseline, LS Mean” value (Week 12) was −3.01 and the “YBOCS Compulsions Subscale Change from Baseline, Troriluzole vs Placebo Difference Estimate” value (Week 12) was −0.64. For the same compound, the “YBOCS Obsessions Subscale Change from Baseline, LS Mean” value (Week 12) was −2.91, the “YBOCS Obsessions Subscale Change from Baseline, Troriluzole vs Placebo Difference Estimate” value (Week 12) was −0.36 and the “YBOCS Total Change from Baseline, Troriluzole vs Placebo Difference Estimate” value (Week 12) was −1.0. For the same compound, the “YBOCS Total Change … LS Mean” value (Week 12, 140 mg QD first 4 weeks then 200 mg QD, added to SOC) was −5.9 points, the “YBOCS Total Score Change” value (Week 12) was −5.0 and the “YBOCS Total Change … LS Mean” value [3] was −7.0 points. The “YBOCS Total Change from Baseline, Troriluzole vs Placebo Difference Estimate” value [3] was −2.4 and the safety profile (in vivo) was “safe and well tolerated”.
